For series [1] the following is noted: compared with uric acid; background statement; cited from earlier work.
The conditions of series [2]: human, in vivo; cited from earlier work.
The subject of series [3] is PEGylated recombinant pig-baboon chimeric uricase (PEG-PBC uricase; PBC uricase SEQ ID NO:2). As to the kind of experiment: KM of PEGylated recombinant PBC uricase (studies not shown). The class given is biochemical, pig-baboon chimera. The conditions noted are these: similar kinetic properties to unmodified. The method, then: 100 mg of concentrated Sepahacryl S-200 PBC uricase (5 mg/ml, 2.9 μmol enzyme; 84.1 μmol lysine) in 0.1 M Na2CO3, pH 10.2 was allowed to react with a 2-fold excess (mol of PEG:mol uricase lysines) of an activated form of PEG at 4° for 60 min. The PEGylated uricase was freed from any unreacted or hydrolyzed PEG by tangential flow diafiltration. In this step the reaction was diluted 1:10 in 0.1 M Na2CO3, pH 10.2 and diafiltered vs. 3.5 vol 0.1 M Na2CO3, pH 10.2, then vs. 3.5 vol 0.05 M sodium phosphate, 0.15 M NaCl, pH 7.2. The filter-sterilized enzyme was stable at 4° for at least one month.
In this PEGylation reaction all of the uricase subunits were modified (FIG. 1, lane 7). In studies not shown, the PEGylated enzyme had similar kinetic properties to unmodified PBC uricase (KM 10–20 μM). Importantly, the modified enzyme was much more soluble than the unmodified enzyme at physiologic pH (>5 mg/ml in PBS vs. <1 mg/ml). The PEGylated enzyme could also be lyophilized and then reconstituted in PBS, pH 7.2, with minimal loss of activity. In other experiments, we compared the activities of this preparation of PEG-PBC uricase with the A. flavus uricase clinical preparation. […] However, in PBS, pH 7.2, the PEG-PBC and unmodified fungal enzymes differed in uricase activity by <2 fold.

For series [4], the target named is T1, Aspergillus flavus uricase, clinical preparation (unmodified fungal enzyme) (Aspergillus flavus, UniProt Q00511).
T1 sequence (Q00511 2-302 limits assumed): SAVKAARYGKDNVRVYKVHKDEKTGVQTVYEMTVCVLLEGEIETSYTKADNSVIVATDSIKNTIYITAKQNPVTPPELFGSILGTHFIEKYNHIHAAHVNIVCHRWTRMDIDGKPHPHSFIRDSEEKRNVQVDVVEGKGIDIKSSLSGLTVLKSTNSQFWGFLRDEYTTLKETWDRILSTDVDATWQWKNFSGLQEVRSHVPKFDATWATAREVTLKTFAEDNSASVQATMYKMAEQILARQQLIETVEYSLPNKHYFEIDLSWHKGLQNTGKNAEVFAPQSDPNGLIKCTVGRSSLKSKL
In words: Kinetic comparison of A. flavus uricase clinical preparation with PEG-PBC uricase. Format: biochemical. To be noted: pH 8.6 in borate buffer; versus PEG-PBC uricase. The method, then:
(§1) In this PEGylation reaction all of the uricase subunits were modified (FIG. 1, lane 7). In studies not shown, the PEGylated enzyme had similar kinetic properties to unmodified PBC uricase (KM 10–20 μM). […] The PEGylated enzyme could also be lyophilized and then reconstituted in PBS, pH 7.2, with minimal loss of activity. In other experiments, we compared the activities of this preparation of PEG-PBC uricase with the A. flavus uricase clinical preparation. […] However, in PBS, pH 7.2, the PEG-PBC and unmodified fungal enzymes differed in uricase activity by <2 fold.

Series [5] has as its system recombinant pig-baboon chimeric uricase (PBC uricase; aa 1–225 of porcine uricase (SEQ ID NO:7) and aa 226–304 of baboon uricase (SEQ ID NO:6)), unmodified …. In words: KM of unmodified recombinant PBC uricase (studies not shown). Format: biochemical, pig-baboon chimera. The method, then:
as §1

We go through three compounds from patent US7056713B1, “Urate oxidase” (Duke University, priority 1998, dated 2006).

For the compound `NC(=O)NC1NC(=O)NC1=O` (stereo not shown) [allantoin], the “solubility relative to uric acid (times more soluble)” value in series [1] is recorded as 80–100 times.
Turning to `Oc1ncnc2[nH]ncc12` [allopurinol], in series [2], the “patients who develop allergic reactions” value is listed as ~2% and the severe hypersensitivity syndrome is recorded as ~0.4%.
For `O=c1[nH]c(=O)c2[nH]c(=O)[nH]c2[nH]1` [uric acid], in series [3], the Michaelis-Menten constant (Km) fell in the range of 10 to 20 µM. In series [4], the “KM, fold higher than PEG-PBC uricase” value is reported as 2 fold and the “Vmax, fold higher than PEG-PBC uricase” value is listed as 10–14 fold. For the same compound, the Michaelis-Menten constant (Km) in series [5] is 10 to 20 µM.

A word on the Km: it is the concentration of substrate that gives half-maximal velocity.
